According to patent US8772499B2, “TRPV3 modulators” (AbbVie Inc., priority 2011, dated 2014):
Read-outs that look alike come from different tables or passages of the source.

Tests used:
[1] = In vitro human microsomal stability assay; type: in vitro ADME; settings: human, microsomes, 0.5 h, 0.5 μM, pH 7.4
Summary of the method: (§1)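 Compound is mixed with liver microsomes (human, or rat of the Sprague-Dawley strain). The mixture is then held at 37° C. in the presence of NADPH. Time-zero plates also receive NADPH.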

human TRPV3 = target: T1, human TRPV3 (Homo sapiens, UniProt Q8NET8); assay: In vitro antagonism of recombinant human TRPV3 activation (FLIPR Tetra calcium assay); type: cell-based; settings: HEK293 cells stably expressing human TRPV3, agonist 2-APB at 80 μM
T1 construct: expressed in transfected cells
T1 sequence (Q8NET8 1-790): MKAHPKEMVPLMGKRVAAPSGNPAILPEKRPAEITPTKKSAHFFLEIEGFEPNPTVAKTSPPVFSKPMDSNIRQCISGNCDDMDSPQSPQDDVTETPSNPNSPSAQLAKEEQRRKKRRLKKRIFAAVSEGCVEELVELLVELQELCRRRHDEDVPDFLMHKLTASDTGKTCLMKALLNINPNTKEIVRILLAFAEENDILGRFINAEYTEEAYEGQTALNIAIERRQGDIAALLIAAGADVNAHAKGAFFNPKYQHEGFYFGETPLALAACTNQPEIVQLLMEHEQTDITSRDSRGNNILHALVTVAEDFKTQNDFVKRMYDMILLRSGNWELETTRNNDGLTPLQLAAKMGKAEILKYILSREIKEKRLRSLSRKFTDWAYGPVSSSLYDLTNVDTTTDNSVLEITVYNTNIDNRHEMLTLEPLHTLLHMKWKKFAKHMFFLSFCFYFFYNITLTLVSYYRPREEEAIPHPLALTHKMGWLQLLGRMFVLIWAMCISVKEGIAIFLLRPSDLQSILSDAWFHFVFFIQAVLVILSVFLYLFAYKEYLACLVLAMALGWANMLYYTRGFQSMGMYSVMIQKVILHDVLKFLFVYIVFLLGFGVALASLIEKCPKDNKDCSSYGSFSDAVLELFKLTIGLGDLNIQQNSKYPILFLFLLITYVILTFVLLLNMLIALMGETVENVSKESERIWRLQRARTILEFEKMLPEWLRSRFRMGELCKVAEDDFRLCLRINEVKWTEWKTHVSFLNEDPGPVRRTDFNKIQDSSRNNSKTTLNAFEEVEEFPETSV
Summary of the method: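 HEK293 cells stably expressing human TRPV3, loaded with Calcium-4 dye for 90–120 min, received compound in DPBS, then 80 μM 2-APB (EC80) 3 min later. Max-minus-min fluorescence expressed as % of 2-APB response without antagonist; IC50 values mostly averages of n≥2 runs.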

[2] = In vitro rat microsomal stability assay; type: in vitro ADME, rat (Sprague-Dawley); settings: Sprague-Dawley, rat, microsomes, 0.5 h, 0.5 μM, pH 7.4
Summary of the method: as §1

[3] = actual measured value shown parenthetically, in most cases average of at least two runs, read-out: IC50
[4] = reported range, read-out: IC50 (range class)

Structure (SMILES) | HUMAN MICROSOMAL STABILITY (% REMAINING AFTER 30 MINUTES) [1] | IC50 (human TRPV3; [3]) | RAT MICROSOMAL STABILITY (% REMAINING AFTER 30 MINUTES) [2] | IC50 (human TRPV3; [4])
CC1(O)CC(c2ccnc(C(F)(F)F)c2)(C(O)c2ccccn2)C1 (single isomer, unassigned) [Example 307] | 73% | 8.23 µM | >85% | –
CC1(O)CC(c2cncc(C(F)(F)F)c2)(C(O)c2ccccn2)C1 (single isomer, unassigned) [Example 308] | 41% | 1 µM | 13% | –
OC1CC(c2ccc(Cl)c(Cl)c2)(C(O)c2ncccn2)C1 (single isomer, unassigned) [Example 312] | >85% | 1.96 µM | >85% | –
OC1CC(c2ccc(Cl)c(Cl)c2)(C(O)c2ncccn2)C1 (single isomer, unassigned) [Example 313] | 81% | > 20 µM | >85% | > 20 µM
OC(c1ccccn1)C1(c2ccccc2F)CCC1 (stereo not shown) [Example 1, [1-(2-fluorophenyl)cyclobutyl](pyridin-2-yl)methanol] | 0.38% | 1.5 µM | 0.48% | –
OC(c1ccccn1)C1(c2cccc(F)c2)CCC1 (stereo not shown) [Example 2, [1-(3-fluorophenyl)cyclobutyl](pyridin-2-yl)methanol] | 17% | 0.32 µM | 0.64% | –
OC(c1ccccn1)C1(c2ccc(F)cc2)CCC1 (stereo not shown) [Example 3, [1-(4-fluorophenyl)cyclobutyl](pyridin-2-yl)methanol] | 28% | 0.79 µM | 3.8% | –
OC(c1ccccn1)C1(c2ccc(F)c(F)c2)CCC1 (stereo not shown) [Example 4, [1-(3,4-difluorophenyl)cyclobutyl](pyridin-2-yl)methanol] | 19% | 0.46 µM | 4.2% | –
OC(c1ccccn1)C1(c2ccccc2C(F)(F)F)CCC1 (stereo not shown) [Example 5, pyridin-2-yl{1-[2-(trifluoromethyl)phenyl]cyclobutyl}methanol] | 0.27% | 5.22 µM | 0.06% | –
OC(c1ccccn1)C1(c2cccc(C(F)(F)F)c2)CCC1 (stereo not shown) [Example 6, pyridin-2-yl{1-[3-(trifluoromethyl)phenyl]cyclobutyl}methanol] | 1.2% | 0.35 µM | 2.3% | –
Cc1ccccc1C1(C(O)c2ccccn2)CCC1 (stereo not shown) [Example 7, [1-(2-methylphenyl)cyclobutyl](pyridin-2-yl)methanol] | 0.15% | 17.5 µM | 0.32% | –
Cc1cccc(C2(C(O)c3ccccn3)CCC2)c1 (stereo not shown) [Example 8, [1-(3-methylphenyl)cyclobutyl](pyridin-2-yl)methanol] | 0.13% | 0.38 µM | 0.73% | –
Cc1ccc(C2(C(O)c3ccccn3)CCC2)cc1 (stereo not shown) [Example 9, [1-(4-methylphenyl)cyclobutyl](pyridin-2-yl)methanol] | 0.12% | 1.51 µM | 0.18% | –
OC(c1ccccn1)C1(c2ccccc2OC(F)(F)F)CCC1 (stereo not shown) [Example 10, pyridin-2-yl{1-[2-(trifluoromethoxy)phenyl]cyclobutyl}methanol] | 0.42% | 1.1 µM | 0.62% | –
OC(c1ccccn1)C1(c2cccc(OC(F)(F)F)c2)CCC1 (stereo not shown) [Example 11, pyridin-2-yl{1-[3-(trifluoromethoxy)phenyl]cyclobutyl}methanol] | 0.72% | 0.4 µM | 0.80% | –
OC(c1ccccn1)C1(c2ccc(OC(F)(F)F)cc2)CCC1 (stereo not shown) [Example 12, pyridin-2-yl{1-[4-(trifluoromethoxy)phenyl]cyclobutyl}methanol] | 24% | 0.42 µM | 11% | –
OC(c1ccccn1)C1(c2cc(C(F)(F)F)cc(C(F)(F)F)c2)CCC1 (stereo not shown) [Example 13, {1-[3,5-bis(trifluoromethyl)phenyl]cyclobutyl}(pyridin-2-yl)methanol] | 7.4% | 0.6 µM | 19% | –
OC(c1ccccn1)C1(c2ccc(F)c(C(F)(F)F)c2)CCC1 (stereo not shown) [Example 15, {1-[4-fluoro-3-(trifluoromethyl)phenyl]cyclobutyl}(pyridin-2-yl)methanol] | 5.6% | 0.31 µM | 1.2% | –
OC(c1ccccn1)C1(c2ccc(C(F)(F)F)c(F)c2)CCC1 (stereo not shown) [Example 17] | 21% | 1.1 µM | 13% | –
OC(c1ccccn1)C1(c2ccccn2)CCC1 (stereo not shown) [Example 19, pyridin-2-yl(1-pyridin-2-ylcyclobutyl)methanol] | >85% | > 20 µM | 76% | > 20 µM
OC(c1ccccn1)C1(c2cccnc2)CCC1 (stereo not shown) [Example 20, pyridin-2-yl(1-pyridin-3-ylcyclobutyl)methanol] | 80% | > 20 µM | 81% | > 20 µM
OC(c1ccccn1)C1(c2ccncc2)CCC1 (stereo not shown) [Example 21, pyridin-2-yl(1-pyridin-4-ylcyclobutyl)methanol] | 71% | > 20 µM | 52% | > 20 µM
OC(c1ccccn1)C1(c2cccc(Oc3ccccc3)c2)CCC1 (stereo not shown) [Example 23, [1-(3-phenoxyphenyl)cyclobutyl](pyridin-2-yl)methanol] | 0.12% | 0.93 µM | 0.69% | –
OC(c1ccccn1)C1(c2ccc(Oc3ccccc3)cc2)CCC1 (stereo not shown) [Example 24, [1-(4-phenoxyphenyl)cyclobutyl](pyridin-2-yl)methanol] | 20% | 4.7 µM | 17% | –
OC(c1ccccn1)C1(c2ccc(Cc3ccccc3)cc2)CCC1 (stereo not shown) [Example 25, [1-(4-benzylphenyl)cyclobutyl](pyridin-2-yl)methanol] | 21% | 1.18 µM | 1.3% | –
O[C@H](c1ccccn1)C1(c2ccc(Cl)c(Cl)c2)CCC1 [Example 26, (S)-[1-(3,4-dichlorophenyl)cyclobutyl](pyridin-2-yl)methanol] | 6.3% | 0.31 µM | 1.0% | –
O[C@H](c1ccccn1)C1(c2ccc(C(F)(F)F)cc2F)CCC1 [Example 27, (S)-{1-[2-fluoro-4-(trifluoromethyl)phenyl]cyclobutyl}(pyridin-2-yl)-methanol] | 13% | 1.4 µM | 15% | –
O[C@H](c1ccccn1)C1(c2ccc(C(F)(F)F)cc2)CCC1 [Example 28, (S)-pyridin-2-yl{1-[4-(trifluoromethyl)phenyl]cyclobutyl}methanol] | 12% | 0.44 µM | 13% | –
O[C@H](c1ccccn1)C1(c2ccc(C(F)(F)F)c(F)c2)CCC1 [Example 29, (S)-{1-[3-fluoro-4-(trifluoromethyl)phenyl]cyclobutyl}(pyridin-2-yl)-methanol] | 5.3% | 2.54 µM | 45% | –
